The record followed here is US5132414A, “Dideoxynucleoside-5'-phosphonoformic acid compounds” (Dana-Farber Cancer Institute, Inc., priority 1990, dated 1992).

Data set [1] has as its system HIV-1. The data set can be described thus: Inhibition of HIV-1 replication in Jurkat cells (RT activity), drugs added 4 h before virus (prophylaxis model). The format is cell-based. As to conditions: for IC95: 96 h, read-out: concentration needed to achieve the same degree of inhibition (>95% inhibition of RT activity); for IC50: read-out: 50% inhibitory concentration (IC50), RT activity in culture supernatants. On the procedure: The final DMSO concentration in the medium was <0.1%. These solutions in cell growth medium were used in all of the biological tests described below.
In a second evaluation, the compound salt of Example 1, AZT, and PFA were compared as inhibitors of HIV-1 replication in Jurkat cells when added to the cultures 4 h before the virus (i.e., in a prophylaxis model). The drugs were present through the length of the experiment (4 days).

Data set [2] in a line: Inhibition of Jurkat cell growth. The format is cell-based, human. As to conditions: human; at 10^-5 M; Jurkat cells; read-out: growth inhibition of host cells. From the text: (§1) FIG. 2B is a graph showing inhibition of Jurkat cell growth under the same conditions as in FIG. 2A;
(§2) For biological testing, a stock solution of the free acid of Example 1 was made up in DMSO and dispensed into RPMI 1640 cell growth medium to give the desired range of concentrations. The final DMSO concentration in the medium was <0.1%. These solutions in cell growth medium were used in all of the biological tests described below.
(§3) In a second evaluation, the compound salt of Example 1, AZT, and PFA were compared as inhibitors of HIV-1 replication in Jurkat cells when added to the cultures 4 h before the virus (i.e., in a prophylaxis model). The drugs were present through the length of the experiment (4 days). […] Thus, while there was an approximately four-log TI for AZT in this experiment, the TI for the compound of Example 1 could not actually be estimated because the IC50 for cell growth inhibition, extrapolated from the dose-response curve, was >10^-3 M.

In data set [3] the test system is HIV-1. The data set can be described thus: Inhibition of HIV-1 replication in cultured human peripheral blood leukocytes. The class given is cell-based. As to conditions: Human immunodeficiency virus 1, Leukocyte; H-PBLs; added 4 hours before virus, measured at 4 days; read-out: 50% inhibition of viral replication.
Source text: FIG. 3A is a graph showing inhibition of HIV-1 replication in human peripheral blood leukocytes;
as §2
(§4) The activities of the compound of Example 1, AZT, and PFA were also examined in cultured human peripheral blood leukocytes (H-PBLs) infected with HIV-1. […] In both PBLs and Jurkat cells, therefore, the antiviral potency of the compound of Example 1 resembled that of AZT, while its low cytotoxicity was more reminiscent of that of PFA.

The nature of data set [4]: Inhibition of growth of human peripheral blood leukocytes. The format is cell-based. As to conditions: at 10^-4 M, H-PBLs, read-out: inhibition of PBL growth.
Source text: FIG. 3B is a graph showing inhibition of growth of human peripheral blood leukocytes;
as §2, §4

Data set [5] concerns Rauscher murine leukemia virus (RLV). The data set is described as follows: Plaque assay: inhibition of plaque formation by Rauscher murine leukemia virus in mouse fibroblast cultures. The class given is cell-based. As to conditions: for inhibition of plaque formation: added 4 hours before virus, 4 days.
Source text: FIG. 4A is a graph showing inhibition of plaque formation by a different retrovirus (a murine leukemia virus) in mouse fibroblast cultures;
as §2
The compound of Example 1 as well as AZT and PFA were also tested in a plaque assay for the ability to inhibit plaque formation in mouse fibroblast cultures by Rauscher murine leukemia virus (RLV), a type C retrovirus; the results are shown in FIG. 4A. Drugs were added to the cultures 4 hours before the virus, and inhibition was measured at 4 days. The cytotoxicity of all the agents to non-infected fibroblasts was also determined and found to be <50% at concentrations of up to 10^-5 M as shown in FIG. 4B. […] When AZT alone was used at a concentration of only 10^-9 M there was no effect, but when AZT and PFA were combined, each at concentrations of 10^-9 M, there was almost 50% inhibition of plaque formation even though the PFA was not used in excess.

Data set [6] has as its system simian immunodeficiency virus (SIV). The data set is described as follows: Inhibition of SIV in cultured human lymphoblasts (CEM cells), RT activity. The class given is cell-based. As to conditions: CCRF-CEM, added 4 hours before virus, measured at 3 days, read-out: approximate IC50 for inhibition of RT activity in SIV-infected CEM cells.
Source text: (§5) FIG. 5A is a graph showing inhibition by AZT of retroviral propagation and of cell growth in cultured human lymphoblasts infected with simian immuno-deficiency virus;
(§6) FIG. 5B is a graph showing the results of using one embodiment of the invention in the same test as that of FIG. 5A.
as §2
(§7) The activities of AZT and of the compound of Example 1 against simian immunodeficiency virus (SIV) in cultured human lymphoblasts (CEM cells) were assayed; the results are shown in FIGS. 5A and 5B, respectively. The drugs were added to the culture 4 hours before the virus and inhibition was measured at 3 days.

Another data set has as its system CEM cells. The data set is described as follows: Inhibition of CEM cell growth. The format is cell-based, human. As to conditions: for IC50: Homo sapiens, CCRF-CEM, 72 h, read-out: approximate IC50 for CEM cell growth.
Source text: as §5, §6, §2, §7

Data set [7] relates to simian immunodeficiency virus (SIV). The data set is described as follows: Inhibition of SIV replication in monkey peripheral blood leukocytes (RT activity). The class given is cell-based.
Source text: (§8) FIG. 6A is a graph showing results of a test similar to that of FIG. 5A except that monkey peripheral blood leukocytes were used; and
(§9) FIG. 6B is a graph showing inhibition by one embodiment of the invention under the same conditions as in FIG. 5B.
as §2, §7

Data set [8] concerns monkey peripheral blood leukocytes (M-PBLs). The data set is described as follows: Growth inhibition / toxicity to monkey peripheral blood leukocytes. The class given is cell-based. As to conditions: in words.
Source text: as §8, §9, §2, §7

Data set [9] deals with HIV-1. The data set can be described thus: Inhibition of HIV-1 replication in Jurkat cells (RT activity in supernatant), compound added at time zero or 4 h post-infection. The class given is cell-based. As to conditions: Human immunodeficiency virus 1, compound added at time zero or 4 h post-infection, read-out: 50% inhibition of RT activity relative to non-treated HIV-infected cells. On the procedure:
as §2
(§10) The compound of Example 1 was tested initially for its ability to inhibit HIV-1 replication in Jurkat cells, a CD4+ human T-lymphocyte line commonly used for this purpose. Reverse transcriptase (RT) activity in the supernatant from the infected cells was used as a measure of viral replication, and the compound was added to the cultures at time zero or 4 h post-infection. Parallel cytotoxicity assays were performed in non-infected Jurkat cells to assess therapeutic selectivity.

Data set [10] can be described thus: Cytotoxicity in non-infected Jurkat cells, 4 days exposure. The format is cell-based. As to conditions: human, up to 10^-4 M, read-out: decrease in cell viability. The method, then: as §2, §10
The next data set deals with Jurkat cells. The data set can be described thus: Inhibition of Jurkat cell growth. The format is cell-based, human. As to conditions: Homo sapiens, Jurkat, read-out: IC50 for cell growth inhibition.
Source text: as §1, §2, §3

In the next data set the target is T1, HIV-1 RT (Human immunodeficiency virus type 1 group M subtype B, UniProt P04585).
T1 construct: purified HIV-1 RT
The data set can be described thus: Cell-free assay with purified HIV-1 RT. The format is biochemical.
Source text: as §2
To examine the question whether RT inhibition by the compound of Example 1 could by itself account for the antiretroviral effect in intact cells, the effect of the compound on RT activity was examined in a cell-free assay with purified HIV-1 RT. An IC50 value (ca. 50 μM) well in excess of the concentration needed to block viral replication was obtained. Therefore, it appears that metabolism is required in the action of the compound of Example 1 or that the compound has one or more targets other than RT in the cell.

[11] abbreviates: Human immunodeficiency virus 1, Jurkat.

The term inhibition denotes the percentage by which the read-out fell short of the control.

SMILES strings stand for the structures.

Regarding `Cc1cn([C@H]2C[C@H](N=[N+]=[N-])[C@@H](CO)O2)c(=O)[nH]c1=O` [AZT, 3'-azidothymidine, reference compound], the IC95 in the data set with HIV-1 [1] (setting [11]) came to 100 µM. For the same compound, the IC50 was 10 nM in the data set on HIV-1 [1] (setting [11]), around 10 nM with HIV-1 [3], around 5 nM in [6] and around 2000 nM with CEM cells. In addition, the inhibition at 96 h, 10 µM in [2] is 50 to 60%. The inhibition at 100 µM in data set [4] is 80%. Further, the “inhibition of plaque formation” value is “Complete inhibition” in data set [5] (at 10^-7 M) and “no effect” in data set [5] (at 10^-9 M). Also, the “concentrations required for inhibition of SIV replication in M-PBLs (versus CEM cells)” value in data set [7] (in words) is on record as “required higher AZT concentrations”. Besides, the “concentrations required for inhibition of cell growth in M-PBLs (versus CEM cells)” value in data set [8] was “required higher AZT concentrations”.
`CCOC(=O)P(=O)(O)OC[C@H]1O[C@@H](n2cc(C)c(=O)[nH]c2=O)C[C@@H]1N=[N+]=[N-]` [Example 1, 3'-Azido-3'-deoxy-5'-[P-(ethoxycarbonyl)-P-Hydroxyphosphinyl]thymidine]: the IC50 in the data set on HIV-1 [9] is around 500 nM; with HIV-1 [1] (setting [11]), around 2 nM; with Jurkat cells, above 1 mM; in the data set on HIV-1 [3] it was around 10 nM; in [6], around 10 nM; in the data set with CEM cells it was above 100000 nM. Further, the IC50 in data set [7] (Simian immunodeficiency virus, Leukocyte, in Primates, M-PBLs, added 4 hours before virus, read-out: 50% inhibition of RT activity (SIV replication)) is 100 nM; against HIV-1 RT, around 50 µM. Further, in [10], the cytotoxicity at 96 h, 100 µM was below 10%. Moreover, the inhibition at 0.005 µM with HIV-1 [1] (Human immunodeficiency virus 1, Jurkat, read-out: inhibition of RT activity) is above 95%. Besides, the “increase in potency relative to AZT” value in the data set on HIV-1 [1] (Jurkat cells, HIV-1, IC50 comparison with AZT) is “roughly fivefold”. Further, in data set [2], the inhibition at 96 h, 10 µM came out at 20%. In addition, in data set [4], the inhibition at 100 µM was 20%. In addition, the “inhibition of plaque formation” value in [5] (at 10^-5 M) is “almost complete inhibition”; in [5] (at 10^-7 M) it was “inactive”. The “effectiveness in the RLV system relative to AZT or a 1:1 combination of AZT and PFA” value in [5] (comparison in words) was “less effective than AZT or a 1:1 combination of AZT and PFA”. Besides, the “times less toxic to the host cells than AZT” value in the data set with CEM cells (CEM cells, relative to AZT) is “at least 200 times”. Further, the “toxicity to the host cell relative to AZT” value in data set [8] is recorded as “considerably lower than with AZT”.
As for `O=C(O)P(=O)(O)O` [PFA, phosphonoformic acid], in the data set with HIV-1 [1] (setting [11]), the IC95 is 1000 µM and the IC50 amounted to 10000 nM. For the same compound, in data set [2], the inhibition at 96 h, 10 µM was found to be 30%. Also, the “inhibition of plaque formation” value in [5] (until the concentration reached 10^-4 M) was “no appreciable effect”.
